How the values were obtained:
clinical = type: in vivo, human; settings: plasma
Description: (§1) Response assessment was performed every 28 days on day 1 of each cycle. Adverse event (AE) was assessed using the NCI Common Terminology Criteria for Adverse Events (CTCAE) version 4.03. […] Plasma concentrations were determined at the following distinct time points: pre-dose, 0.5 h, 1 h, 1.5 h, 2 h, 3 h, 4 h, 5 h, 6 h, 8 h, 10 h, 24 h, and 48 h. Pharmacokinetics ethnicity sensitivity analysis was performed to evaluate the potential impact of ethnic factors on the acceptability and difference in the data of Chinese and western patients.
PK parameters were obtained by analyzing adequate plasma drug concentration data and calculated using the NCA model with Phoenix WinNonlin v8.3.1. The descriptive statistics of PK parameters were summarized using SAS 9.4.

[1] = test system: Chinese patients with RRMM; experiment: MARCH: safety (TEAEs, CTCAE version 4.03), exposure, dose modification, disposition; type: in vivo
Description: as §1
Patients who received at least 1 dose of study treatment (modified intent-to-treat [mITT]/safety population) were used for efficacy and safety analysis. Demographics, baseline disease characteristics, and prior anti-MM therapies were summarized for the mITT populations. For the primary analysis of ORR, the primary endpoint, the sample size of 82 patients would provide 80% power to detect a statistical significance with the target ORR of 28% against the threshold ORR (i.e., null hypothesis) of 15% (one-sided α=0.025); statistical significance would be declared if the lower bound of the 95% confidence interval (CI) would be greater than 15%. Time to event endpoints including PFS, OS, and DOR were analyzed using the Kaplan-Meier method.

O=C(/C=C\n1cnc(-c2cc(C(F)(F)F)cc(C(F)(F)F)c2)n1)NNc1cnccn1 [selinexor, Selinexor]
Tmax (clinical; human, po, 80 mg, single dose selinexor 80 mg oral, C1D1, read-out: median T max): 2.88 h
AUC(0-t) (clinical; human, po, 80 mg, read-out: mean AUC0–48h): 5800 ng·h/mL
Cmax (clinical; human, po, 80 mg, read-out: mean C max): 862 ng/mL
half-life (clinical; human, po, 80 mg, read-out: mean t 1/2 (converted)): 6 h
median T max (clinical; single dose selinexor 80 mg oral, C1D1): 3 h
median number of dose reductions ([1]; among the patients with dose reductions): 2
median time to the first dose reduction ([1]; in vivo): 22.0 days
patients with a reduction to 80 mg weekly ([1]; in vivo): 20.7%
patients with a reduction to 100–120 mg weekly ([1]; in vivo): 40.2%
patients with dose interruptions ([1]; in vivo): 75.6%
patients with dose reductions ([1]; in vivo): 84.1%
